Assay results from patent US20140348857A1, “METHODS OF DIAGNOSIS AND TREATMENT OF ENDOPLASMIC RETICULUM (ER) STRESS-RELATED CONDITIONS” (MASSACHUSETTS INSTITUTE OF TECHNOLOGY, priority 2011, published 2014).
Where a SMILES comes first, the peptide text is derived from it. The star is where a group is joined. Cbz = O=C(OCc1ccccc1)*

Legend:
[1] = tested on: PERK; test: PERK and eIF2α phosphorylation immunoblot in HeLa cells; type: cell-based, human; conditions: control HeLa cells; Brefeldin A 5 μg/ml, Tunicamycin 3 μg/ml
Excerpt: To determine the effects of (ADP-ribosyl)ation on PERK and IRE1α signaling, GFP-PARP-16, GFP-PARP-16^H152Q Y182A, or GFP alone were over-expressed at similar concentrations, and PERK and IRE1α activation examined using two standard assays; (i) detection of PERK phosphorylation at Thr 981 and phosphorylation of its substrate eIF2α at Ser 51 using phospho-specific antibodies, and (ii) monitoring splicing of the IRE1α substrate XBP-1 mRNA.
To determine if PARP-16 is required for PERK or IRE1α activation, we compared activation in PARP-16 knock-downs to controls. […] Since PERK and IRE1α activity result in the time-dependent activation of downstream transcriptional programs regulated by ATF4 and spliced XBP-1, respectively, we analyzed PERK and IRE1α signaling every 4 hours over a 12-hour period in PARP-16 knock-downs and controls treated with Tunicamycin. Components of each pathway were analyzed via immunoblot or RT-qPCR analysis. While IRE1α activation, detected by phosphorylation of IRE1α, occurred 4 hours post-treatment in controls, such phosphorylation was barely detectable in PARP-16 knock-downs at any time (FIG. 7C, left). […]
Immunofluorescence analysis was performed as described in Leung et al., Mol. Cell 42: 489-499, 2011. […] Fluorescence, biochemical protease protection assays and membrane extraction assays were performed as described in Schreiber et al., Nat. […]

[2] = tested on: ERAD machinery; test: ERAD activity assay, CD3δ-YFP clearance by cycloheximide chase; type: cell-based, human; conditions: MG132 10 μM
Excerpt: While our data strongly point to direct effects of PARP-16 on PERK and IRE1α signaling, compromised ERAD (ER-associated degradation) and/or chaperone capacities of the ER in PARP-16 knock-downs could also affect UPR activation. ERAD activity in PARP-16 knock-downs was examined by measuring clearance of CD3δ-YFP, a model substrate of ERAD machinery. CD3δ-YFP degradation kinetics were similar in PARP-16 knock-downs and controls as assayed by cycloheximide chase. […] The protein-folding capacity of the ER in PARP-16 knock-downs appear to be similar to controls as the protein concentrations of ER chaperones BiP and Calnexin, and disulfide isomerases PDI and ERp57, were similar (FIG. 9C).
ROS was evaluated using a cell permeant […] derivative of fluorescein (CM-H2DCFDA, Invitrogen), following the manufacturer's protocol (Invitrogen). […] The fluorescence intensity of oxidized ROS probe was measured using a microplate reader (Tecan). […] The ratiometric fluorescence at 340 nm/380 nm was measured every 2 min for 20 min, using a microplate reader (Tecan). […] Total RNA was extracted using RNeasy kits and QIAshredder (Qiagen), and cDNA was amplified using Quantitect reverse transcription kit (Qiagen). RT-qPCR was performed with Quantitect SYBR Green PCR kit (Qiagen), using a LightCycler 480 (Roche). mRNA levels were normalized against GAPDH mRNA.

C[C@H]1CCC/C=C/[C@@H]2C[C@H](O)C[C@H]2[C@H](O)/C=C/C(=O)O1 [Brefeldin A]
phosphorylation of PERK and eIF2α [1]: robust phosphorylation of PERK and eIF2α

CC(C)C[C@@H](C=O)NC(=O)[C@H](CC(C)C)NC(=O)[C@H](CC(C)C)NC(=O)OCc1ccccc1 [MG132] (Cbz-Leu-Leu-Leu-aldehyde)
CD3δ-YFP degradation [2]: rescued degradation

Tunicamycin
phosphorylation of PERK and eIF2α [1]: robust phosphorylation of PERK and eIF2α
